≈ marks a conversion by molar mass, not a printed value. Read-outs that look alike come from different tables or passages of the source.
Key:
[1] = DPPH radical scavenging assay; conditions: methanolic solution, 40 μM DPPH, 1 h, 23 °C, 516 nm
Description: Particular volumes of chlorogenic acid and chlorogenate solutions were added into the test tubes and diluted with methanol to obtain a series of solutions at the concentrations 10–0.1 μM (final volume 1 mL). Then, 2 mL of DPPH was added to each tube, vortexed and incubated in the darkness for 1 h at 23 °C. […] The absorbance of the mixture was measured at 516 nm against methanol as the blank using Agilent Carry 5000 spectrophotometer. The control sample—2 mL of DPPH solution and 1 mL of methanol. […] Then, the concentration of the tested substances was plotted against the % inhibition and the IC50 values were read from the scavenging curves. […] The IC50 parameter was also obtained for butylated hydroxyanisol (BHA), butylated hydroxytoluene (BHT) and L-ascorbic acid and compared with those ones calculated for studied compounds.

[2] = FRAP (ferric reducing antioxidant power) assay; conditions: Fe2+ equivalents
Description: Ferric reducing antioxidant activity was determined in FRAP assay. In order to prepare the FRAP reagent the following reagents: 0.3 M acetate buffer (pH 3.6), 10 mM TPTZ (in 40 mM HCl) and 20 mM FeCl3·6H2O (in water) were mixed in a volumetric ratio 10:1:1 directly before analyses. Then, the FRAP reagent (3 mL) was mixed with the tested substance (0.4 mL; final concentrations C = 2.5 and 5.0 μM). The absorbance was measured at 594 nm against blank (3 mL of FRAP and 0.4 mL of methanol) using an Agilent Carry 5000 spectrophotometer (CA, USA). Antioxidant activity was expressed as Fe^2+ equivalents [μM] using the calibration curve prepared over the range of 1000–20 μM concentration of FeSO4.

[3] = test system: Candida sp.; experiment: Antifungal activity, MIC on Müeller Hinton Agar; format: cell-based; conditions: for MIC: Candida, read-out: MIC (minimal inhibitory concentration)
Description: (§1) The antimicrobial activity of studied compounds was tested against Escherichia coli, Bacillus subtilis, Staphylococcus epidermidis, Streptococcus pyogenes and antifungal activities against Candida sp. The microorganisms used in the experiment were obtained from the American Type Culture Collection-ATCC. Antimicrobial activity was measured as a minimal inhibitory concentration (MIC) with […] Hinton Agar (MHA). Serial two-fold dilutions of chemicals, ranging from 5000, 2500, 1250, 625 to 312, μg/mL were prepared. After the inoculation of microorganisms on MHA plates with certain tested chemical concentrations, the plates were incubated at 37 °C for bacteria and at 30 °C for Candida sp. for 24 and 48 h, respectively. Plates containing sterile water were used as controls. Minimum three repetitions were run for each assay. Ampicillin and kanamycin were used as a reference antibiotics.

[4] = test system: Staphylococcus Epidermidis (Gram+); experiment: Antimicrobial activity, MIC on Müeller Hinton Agar; format: cell-based; conditions: for MIC: read-out: MIC (minimal inhibitory concentration)
Description: as §1

[5] = test system: Streptococcus Pyogenes (Gram+); experiment: Antimicrobial activity, MIC on Müeller Hinton Agar; format: cell-based; conditions: for MIC: read-out: MIC (minimal inhibitory concentration)
Description: as §1

[6] = test system: E. coli (Gram−); experiment: Antimicrobial activity, MIC on Müeller Hinton Agar; format: cell-based, Escherichia coli; conditions: for MIC: Escherichia coli, read-out: MIC (minimal inhibitory concentration)
Description: as §1

[7] = test system: Bacillus sp. (Gram+); experiment: Antimicrobial activity, MIC on Müeller Hinton Agar; format: cell-based, Bacillus subtilis; conditions: for MIC: read-out: MIC (minimal inhibitory concentration)
Description: as §1

[8] = Pro-oxidant activity as rate of oxidation of trolox (H2O2 / horseradish peroxide); conditions: 100 μM trolox, 50 μM H2O2, pH 7, 25 °C, 272 nm
Description: Chlorogenic acid and chlorogenates were also tested for their pro-oxidative effect on trolox oxidation. The radicals of chlorogenic acid and chlorogenates are produced in their reaction with H2O2 catalysed by horse radish peroxide. Then the phenoxyl radicals react with trolox which undergoes oxidation to trolox radicals and then trolox quinones. Whereas the phenoxyl radical are transformed to phenolic compounds. The maximum absorption for trolox quinone is 272 nm. This is a general procedure to study the pro-oxidant activity of phenolic compounds [54].
The pro-oxidant activity of the tested compounds were measured as the rate of oxidation of trolox according to the procedure described by Zeraik et al.. 100 μM trolox, 50 μM H2O2, 0.01 μM horseradish peroxide in phosphate buffer (pH = 7) and tested substances with a concentration from 0.05–0.35 μM were incubated at 25 °C. The measurement were conducted at 272 nm using an Agilent Carry 5000 spectrophotometer.

[9] = test system: Hepatitis B virus; set-up: method as in PMID 19463857; conditions: cited from earlier work
[10] = test system: E. coli, Bacillus sp., Staphylococcus sp., Streptococcus pyogenes; experiment: Antibacterial activity, MIC as summarised in the abstract; format: cell-based; conditions: summary over tested bacteria (abstract)
Description: as §1

[11] = test system: Stenotrophomonas maltophilia, Bacillus careus, Enterococcus faecalis, Bacillus subtilis, Streptococcus pneumoniae; set-up: method as in PMID 23509719, PMID 21483731, PMID 22417510; conditions: range over listed bacteria; cited from earlier work
[12] = test system: multi-drug resistant Staphylococcus aureus; set-up: method as in PMID 26528244; conditions: via inhibition of the activity of sortase A; cited from earlier work

SMILES: Cc1c(C)c2c(c(C)c1O)CCC(C)(C(=O)O)O2 (stereo not shown) [Trolox, reference compound]
- EC50 [1]: 8.25 ± 0.75 µM
- FRAP Values C Fe2+ ([2]; Ccompound 5 µM): 70.85 ± 3.57 µM

SMILES: Cc1cc(C(C)(C)C)c(O)c(C(C)(C)C)c1 [BHT, butylated hydroxytoluene, reference compound]
- EC50 [1]: 52.8 ± 2.83 µM
- FRAP Values C Fe2+ ([2]; Ccompound 5 µM): 69.66 ± 5.54 µM

SMILES: CC1(C)S[C@@H]2[C@H](NC(=O)[C@H](N)c3ccccc3)C(=O)N2[C@H]1C(=O)O [Ampicillin, reference compound]
- MIC ([3]; 48 h, MHA plates, 30 °C, 48 h): 0.57 mM
- MIC ([4]; MHA plates, 37 °C, 24 h): 0.57 mM
- MIC ([5]; MHA plates, 37 °C, 24 h): 0.57 mM
- MIC ([6]; MHA plates, 37 °C, 24 h): 0.43 mM
- MIC ([7]; MHA plates, 37 °C, 24 h): 0.57 mM

SMILES: O=C(/C=C/c1ccc(O)c(O)c1)O[C@@H]1C[C@](O)(C(=O)[O-])C[C@@H](O)[C@H]1O.[Na+] [Na 5-CQA, sodium chlorogenate]
- MIC (minimal inhibitory concentration) ([3]; MHA plates, 30 °C, 48 h): ˃12.40 mM
- MIC (minimal inhibitory concentration) ([4]; MHA plates, 37 °C, 24 h): ˃6.20 mM
- MIC (minimal inhibitory concentration) ([5]; MHA plates, 37 °C, 24 h): ˃6.20 mM
- time after which the oxidation of trolox finished ([8]; compound 0.35 μM): 20 min
- MIC (minimal inhibitory concentration) ([6]; MHA plates, 37 °C, 24 h): 6.20 mM
- EC50 [1]: 4.5 ± 0.36 µM
- MIC (minimal inhibitory concentration) ([7]; MHA plates, 37 °C, 24 h): ˃6.20 mM
- FRAP Values C Fe2+ ([2]; Ccompound 2.5 µM): 103.08 ± 2.79 µM
- FRAP Values C Fe2+ ([2]; Ccompound 5 µM): 141.13 ± 5.78 µM

SMILES: O=C(/C=C/c1ccc(O)c(O)c1)O[C@@H]1C[C@](O)(C(=O)O)C[C@@H](O)[C@H]1O [5-CQA, 5-O-caffeoylquinic acid, reference compound]
- IC50 against Hepatitis B virus [9]: 0.4 µg/mL (≈ 1.13 µM)
- MIC ([3]; 48 h, MHA plates, 30 °C, 48 h): 14.1 mM
- MIC ([3]; value in brackets): > 5000 µg/mL
- MIC (minimal inhibitory concentration) ([3]; MHA plates, 30 °C, 48 h): > 14.11 mM
- MIC [10]: 7.06 mM (≈ 2500 µg/mL)
- MIC [11]: 8 to 64 µg/mL
- MIC ([4]; MHA plates, 37 °C, 24 h): > 7.06 mM
- MIC ([4]; value in brackets): > 2500 µg/mL
- MIC ([5]; MHA plates, 37 °C, 24 h): > 7.06 mM
- MIC ([5]; value in brackets): > 2500 µg/mL
- IC50 [12]: 33.86 ± 5.55 µg/mL (≈ 95.6 µM)
- MIC ([6]; MHA plates, 37 °C, 24 h): 7.06 mM
- MIC ([6]; value in brackets): 2500 µg/mL
- MIC ([7]; MHA plates, 37 °C, 24 h): > 7.06 mM
- MIC ([7]; value in brackets): > 2500 µg/mL

SMILES: O=C(/C=C/c1ccc(O)c(O)c1)O[C@@H]1C[C@](O)(C(=O)[O-])C[C@@H](O)[C@H]1O.[Rb+] [Rb 5-CQA, rubidium chlorogenate]
- MIC (minimal inhibitory concentration) ([3]; MHA plates, 30 °C, 48 h): 5.27 mM
- MIC (minimal inhibitory concentration) ([4]; MHA plates, 37 °C, 24 h): 5.27 mM
- MIC (minimal inhibitory concentration) ([5]; MHA plates, 37 °C, 24 h): 2.63 mM
- time after which the oxidation of trolox finished ([8]; compound 0.25 μM): 40 min
- MIC (minimal inhibitory concentration) ([6]; MHA plates, 37 °C, 24 h): 2.63 mM
- EC50 [1]: 5.4 ± 0.68 µM
- MIC (minimal inhibitory concentration) ([7]; MHA plates, 37 °C, 24 h): 5.27 mM
- FRAP Values C Fe2+ ([2]; Ccompound 2.5 µM): 86.70 ± 2.86 µM

SMILES: O=C1O[C@H]([C@@H](O)CO)C(O)=C1O [L-ascorbic acid, reference compound]
- EC50 [1]: 10.9 ± 0.53 µM
- FRAP Values C Fe2+ ([2]; Ccompound 5 µM): 81.70 ± 4.23 µM

SMILES: O=C(/C=C/c1ccc(O)c(O)c1)O[C@@H]1C[C@](O)(C(=O)[O-])C[C@@H](O)[C@H]1O.[Cs+] [Cs 5-CQA, caesium chlorogenate]
- MIC (minimal inhibitory concentration) ([3]; MHA plates, 30 °C, 48 h): ˃9.58 mM
- MIC (minimal inhibitory concentration) ([4]; MHA plates, 37 °C, 24 h): ˃4.79 mM
- MIC (minimal inhibitory concentration) ([5]; MHA plates, 37 °C, 24 h): ˃4.79 mM
- MIC (minimal inhibitory concentration) ([6]; MHA plates, 37 °C, 24 h): 4.79 mM
- EC50 [1]: 5.89 ± 1.57 µM
- MIC (minimal inhibitory concentration) ([7]; MHA plates, 37 °C, 24 h): ˃4.79 mM
- FRAP Values C Fe2+ ([2]; Ccompound 2.5 µM): 80.47 ± 5.68 µM

SMILES: NC[C@H]1O[C@H](O[C@H]2[C@H](O)[C@@H](O[C@H]3O[C@H](CO)[C@@H](O)[C@H](N)[C@H]3O)[C@H](N)C[C@@H]2N)[C@H](O)[C@@H](O)[C@@H]1O [Kanamycin, reference compound]
- MIC (minimal inhibitory concentration) ([3]; MHA plates, 30 °C, 48 h): 0.41 mM (≈ 199 µg/mL)
- MIC (minimal inhibitory concentration) ([4]; MHA plates, 37 °C, 24 h): 0.21 mM (≈ 102 µg/mL)
- MIC (minimal inhibitory concentration) ([5]; MHA plates, 37 °C, 24 h): 0.21 mM (≈ 102 µg/mL)
- MIC (minimal inhibitory concentration) ([6]; MHA plates, 37 °C, 24 h): 0.21 mM (≈ 102 µg/mL)
- MIC (minimal inhibitory concentration) ([7]; MHA plates, 37 °C, 24 h): 0.21 mM (≈ 102 µg/mL)

SMILES: O=C(/C=C/c1ccc(O)c(O)c1)O[C@@H]1C[C@](O)(C(=O)[O-])C[C@@H](O)[C@H]1O.[Li+] [Li 5-CQA, lithium chlorogenate]
- MIC (minimal inhibitory concentration) ([3]; MHA plates, 30 °C, 48 h): ˃12.91 mM
- MIC (minimal inhibitory concentration) ([4]; MHA plates, 37 °C, 24 h): ˃6.46 mM
- MIC (minimal inhibitory concentration) ([5]; MHA plates, 37 °C, 24 h): ˃6.46 mM
- time after which the oxidation of trolox finished ([8]; compound 0.35 μM): 20 min
- MIC (minimal inhibitory concentration) ([6]; MHA plates, 37 °C, 24 h): 6.46 mM
- EC50 [1]: 5.28 ± 0.375 µM
- MIC (minimal inhibitory concentration) ([7]; MHA plates, 37 °C, 24 h): ˃6.46 mM
- FRAP Values C Fe2+ ([2]; Ccompound 2.5 µM): 78.93 ± 4.23 µM

SMILES: O=C(/C=C/c1ccc(O)c(O)c1)O[C@@H]1C[C@](O)(C(=O)[O-])C[C@@H](O)[C@H]1O.[K+] [K 5-CQA, potassium chlorogenate]
- MIC (minimal inhibitory concentration) ([3]; MHA plates, 30 °C, 48 h): 5.96 mM
- MIC (minimal inhibitory concentration) ([4]; MHA plates, 37 °C, 24 h): 2.98 mM
- MIC (minimal inhibitory concentration) ([5]; MHA plates, 37 °C, 24 h): ˃5.96 mM
- time after which the oxidation of trolox finished ([8]; compound 0.25 μM): 40 min
- time after which the oxidation of trolox finished ([8]; compound 0.35 μM): 20 min
- MIC (minimal inhibitory concentration) ([6]; MHA plates, 37 °C, 24 h): 5.96 mM
- EC50 [1]: 5.32 ± 0.49 µM
- MIC (minimal inhibitory concentration) ([7]; MHA plates, 37 °C, 24 h): 5.96 mM
- FRAP Values C Fe2+ ([2]; Ccompound 2.5 µM): 99.89 ± 7.05 µM
- FRAP Values C Fe2+ ([2]; Ccompound 5 µM): 132.00 ± 6.07 µM

Source: PMC5855685 (International Journal of Molecular Sciences, 2018)
